One series has as its system subjects with T2D. Set-up: method as in PMID 21994424. Conditions: cited from earlier work.
The nature of series [1]: Structural stability from urea denaturation curves (TF). It is filed as physicochemical, human. Conditions: buffer pH 7.2, 20°C; ±0.05.

Turning to `CCS(=O)(=O)c1ccc(Oc2cc(O[C@@H](C)CO)cc(C(=O)Nc3ccn(C)n3)c2)cn1` [MK0941], in the series with subjects with T2D (higher doses of the drug), the “clinical effect, higher doses” value is “fast-onset transient effects associated with an increase in blood lipids and cardiovascular side effects”. Also, in the series with subjects with T2D (low dose of the drug), the “clinical effect, low dose” value is listed as “slow-onset long-lasting beneficial effect”.

B1: GKRP-P446L: recombinant human GKRP variant P446L (protein)
chain: MPGTKRFQHVIETPEPGKWELSGYEAAVPITEKSNPLTQDLDKADAENIVRLLGQCDAEIFQEEGQALSTYQRLYSESILTTMVQVAGKVQEVLKEPDGGLVVLSGGGTSGRMAFLMSVSFNQLMKGLGQKPLYTYLIAGGDRSVVASREGTEDSALHGIEELKKVAAGKKRVIVIGISVGLSAPFVAGQMDCCMNNTAVFLPVLVGFNPVSMARNDPIEDWSSTFRQVAERMQKMQEKQKAFVLNPAIGPEGLSGSSRMKGGSATKILLETLLLAAHKTVDQGIAASQRCLLEILRTFERAHQVTYSQSPKIATLMKSVSTSLEKKGHVYLVGWQTLGIIAIMDGVECIHTFGADFRDVRGFLIGDHSDMFNQKAELTNQGPQFTFSQEDFLTSILPSLTEIDTVVFIFTLDDNLTEVQTIVEQVKEKTNHIQALAHSTVGQTLLIPLKKLFPSIISITWPLLFFEYEGNFIQKFQRELSTKWVLNTVSTGAHVLLGKILQNHMLDLRISNSKLFWRALAMLQRFSGQSKARCIESLLRAIHFPQPLSDDIRAAPISCHVQVAHEKEQVIPIALLSLLFRCSITEAQAHLAAAPSVCEAVRSALAGPGQKRTADPLEILEPDVQ
modifications: left off: FLAG, end not stated, state not stated
In the case of B1, the “ΔG(H2O) from urea denaturation curves” value in series [1] amounted to 1.55 kcal/mol.

(Values after publication PMC4109836, “Analysis of the co-operative interaction between the allosterically regulated proteins GK and GKRP using tryptophan fluorescence” (Biochemical Journal, 2014).)
